How the values were obtained:
human neutrophils = test: Annexin V/PI flow cytometric assay of neutrophils’ viability; assay type: cell-based; settings: for Higher 2-SC concentration that did not affect human neutrophils’ viability: annexin V/PI assay, 40 min incubation at 37 °C
From the text: (§1) Following the Declaration of Helsinki and the approval of patient-related procedures and protocols by the Ethics Committee of Centro Hospitalar do Porto, Portugal, venous blood was collected from healthy human blood donors, after informed consent. The blood was stored into K3EDTA vacuum tubes after antecubital venipuncture of the donors. In order to obtain the isolated neutrophils, the density gradient centrifugation method was applied, as previously reported, with modifications. In brief, in a 15 mL polypropylene tube, 3 mL of histopaque 1119 were added followed by 3 mL of histopaque 1077 and finally, 4.5 mL of the collected blood were slowly added. Each tube was centrifuged at 900× g at 20 °C for 30 min, with a medium acceleration and deceleration speed. Following centrifugation, the neutrophils’ portion was harvested, and PBS was added to double the volume. The neutrophils’ suspension was then centrifuged at 850× g at 4 °C for 5 min, using a maximum acceleration and deceleration speed. The supernatant was discarded, and the neutrophils’ pellet was resuspended in PBS and afterward milli-Q water was added to lyse the residual erythrocytes. The tube was gently homogenized and after a few minutes, 3% NaCl was added to restore isotony, and then centrifuged again at 850× g at 4 °C for 5 min, using a maximum acceleration and deceleration speed. The supernatant was discarded, and a neutrophils’ pellet was obtained. After isolation, the neutrophils’ pellet was resuspended in the incubation media, tris-glucose buffer (25 mM Trizma® base, 5.5 mM D-glucose, 140 mM NaCl, 1.26 mM CaCl2, 0.81 mM MgSO4, 5.37 mM KCl, pH = 7.4). Neutrophils’ suspension was kept on ice, under soft shaking, until use. The trypan blue exclusion method was used to determine cells’ yield and viability.
The effect of the studied 2-SC on neutrophils’ viability was assessed by flow cytometry, after simultaneous staining with FITC Annexin V and propidium iodide (PI) (Figure S1), as previously reported by our research group, with modifications. After isolation, neutrophils (1 × 10^6 cells/mL) were incubated with 2-SC (up to 100.00 μM) or DMSO for 40 min, at 37 °C, in a 48-well plate. At the end of incubation, the content of each well was transferred to conical microtubes and centrifuged at 400× g at 20 °C for 5 min. After discarding the supernatant, the neutrophils’ pellet was resuspended in PBS and centrifuged under the previous conditions. Once the supernatant was removed, the pellet was resuspended in 10× diluted binding buffer, and then PI and annexin V were added. This mixture was incubated in the dark at room temperature for 15 min, and finally, 10× diluted binding buffer was added. In a flow cytometer, the fluorescence signal, of at least 10,000 cells/sample, were collected in logarithmic mode and followed in channels 1 and 3. The green fluorescence corresponding to annexin V FITC was accompanied in channel 1 and plotted as a histogram of FL1 staining, whereas the fluorescence corresponding to PI was monitored in channel 3 and plotted in the same histogram but as FL3 staining. The collected data were analyzed with the BD Accuri™ C6 software. The data analysis was restricted to the neutrophils’ population. Thus, according to the light-scattering properties of neutrophils (in a forward versus side scatter plot), a polygon gate was drawn, where debris and other blood cells were excluded. The effect of 2-SC on neutrophils’ viability was expressed as a relative percentage of apoptotic and/or necrotic cells when compared to the control (without 2-SC).

[1] = tested on: human neutrophils’ oxidative burst; test: Neutrophils’ oxidative burst, PMA stimulation, luminol chemiluminescence; assay type: cell-based; settings: for inhibition at 25 µM: 25.00 µM (highest tested concentration); for IC50: PMA 160.00 nM, luminol 500.00 μM, mean ± SEM, read-out: IC50, inhibition of human neutrophils’ oxidative burst; for Times less active than C8 (oxidative burst): comparison of IC50 values with C8; for inhibition at 50 µM: 50.00 µM (highest tested concentration)
From the text: as §1
The effect of 2-SC on the modulation of neutrophils’ oxidative burst was assessed after the stimulation of these cells with PMA by monitoring the oxidation of chemiluminescent probe, luminol, by the generated reactive species (Figure S2), according to a previously described methodology. Briefly, neutrophils (1 × 10^6 cells/mL) were pre-incubated with luminol (500.00 μM), and 2-SC (0.00–100.00 μM) or DMSO, at the final concentrations indicated. After this pre-incubation, at 37 °C for 5 min, PMA (160.00 nM) was added, and in turn, neutrophils’ stimulation was initiated. Kinetic readings were immediately initiated and followed for 40 min, at 37 °C, in a microplate reader. The arbitrary chemiluminescence value was taken at the peak of the curve, and the results were expressed as the inhibition percentage of luminol oxidation.
GraphPad Prism 6 software was used to plot the curves of percentage of inhibition versus concentrations of compound, from which the concentration that produces 50% of inhibition (IC50) was determined. GraphPad Prism 6 software was also used to perform all statistical analyses. […] In all cases, p-values < 0.05 were considered statistically significant. The results are expressed as mean ± standard error of the mean (SEM).

[2] = Homo sapiens, Neutrophil, read-out: Inhibitory activity (% ± SEM), neutrophils’ oxidative burst

Row | Compound | Higher 2-SC concentration that did not affect human neutrophils’ viability (human neutrophils) | IC50 ([1]; Homo sapiens, Neutrophil) | further results
1 | O=c1cc(/C=C/c2ccccc2)oc2ccccc12 [A1] | 75.00 µM | – | inhibition at 75 µM ([1]; Homo sapiens, Neutrophil, 75.00 µM (highest tested concentration), read-out: Inhibitory activity (% ± SEM), neutrophils’ oxidative burst): < 30%
2 | COc1ccc2c(=O)c(Br)c(/C=C/c3ccccc3)oc2c1 [H1] | 12.50 µM | – | –
3 | O=c1cc(/C=C/c2cccc(O)c2)oc2ccccc12 [A6] | 100.00 µM | – | inhibition at 100 µM ([1]; Homo sapiens, Neutrophil, 100.00 µM (highest tested concentration), read-out: Inhibitory activity (% ± SEM), neutrophils’ oxidative burst): < 30%
4 | O=c1cc(/C=C/c2c(Cl)cccc2Cl)oc2cccc(O)c12 [G4] | 25.00 µM | – | inhibition at 25 µM [1, 2]: < 30%
5 | O=c1cc(/C=C/c2ccccc2O)oc2cccc(O)c12 [A8] | 25.00 µM | – | inhibition at 25 µM [1, 2]: < 30%
6 | COc1ccc2c(=O)cc(/C=C/c3ccc(O)c(O)c3)oc2c1 [B10] | 6.25 µM | 1000 ± 100 nM | –
7 | COc1cc(OC)c2c(=O)cc(/C=C/c3ccc(O)c(O)c3)oc2c1 [B11] | 12.50 µM | 800 ± 100 nM | –
8 | O=c1cc(/C=C/c2ccc(O)c(O)c2)oc2c(O)c(O)ccc12 [B12] | 12.50 µM | 900 ± 300 nM | –
9 | COc1ccc(/C=C/c2cc(=O)c3ccc(OC)c(OC)c3o2)cc1OC [C6] | 37.50 µM | 20000 ± 2000 nM | Times less active than C8 (oxidative burst) [1]: ~17 times
10 | Cc1ccc(/C=C/c2cc(=O)c3c(O)cccc3o2)cc1 [E2] | 12.50 µM | – | –
11 | O=c1cc(/C=C/c2ccc(O)c(O)c2)oc2cc(O)cc(O)c12 [B9] | 12.50 µM | 800 ± 100 nM | –
12 | O=c1c(O)c(-c2ccc(O)c(O)c2)oc2cc(O)cc(O)c12 [Quercetin, quercetin, reference compound] | – | 800 ± 100 nM | –
13 | COc1cccc2oc(/C=C/c3ccccc3)cc(=O)c12 [A5] | 6.25 µM | – | –
14 | COc1cc(OC)c2c(=O)c(Br)c(/C=C/c3ccccc3)oc2c1 [H2] | 50.00 µM | – | inhibition at 50 µM [1, 2]: < 30%
15 | O=c1cc(/C=C/c2ccc(OCc3ccccc3)c(OCc3ccccc3)c2)oc2ccccc12 [D1] | 12.50 µM | – | –
16 | O=c1cc(/C=C/c2ccc(Cl)c(Cl)c2)oc2cccc(O)c12 [G3] | 25.00 µM | – | inhibition at 25 µM [1, 2]: < 30%
17 | O=c1cc(/C=C/c2ccc(O)cc2)oc2cc(O)ccc12 [B3] | 25.00 µM | 4100 ± 300 nM | –
18 | O=c1cc(/C=C/c2ccc(O)c(O)c2)oc2ccccc12 [B6] | 12.50 µM | 1000 ± 100 nM | Times more active than B1 (oxidative burst) ([1]; comparison of IC50 values with B1): ~7.5 times

Row | Compound | Higher 2-SC concentration that did not affect human neutrophils’ viability (human neutrophils) | IC50 ([1]; Homo sapiens, Neutrophil) | further results
19 | O=c1cc(/C=C/c2ccccc2)oc2cccc(O)c12 [A2] | 6.25 µM | – | –
20 | COc1cc(OC)c2c(=O)cc(/C=C/c3ccc(OC)c(OC)c3)oc2c1 [C5] | 75.00 µM | – | inhibition at 50 µM [1, 2]: 54 ± 2%
21 | Cc1ccc(/C=C/c2cc(=O)c3ccccc3o2)cc1 [E1] | 25.00 µM | – | –
22 | COc1ccc2c(=O)cc(/C=C/c3ccc(O)c(O)c3)oc2c1OC [B13] | 12.50 µM | 1000 ± 200 nM | –
23 | O=c1cc(/C=C/c2ccc(O)c(O)c2)oc2cccc(O)c12 [B7] | 0.38 µM | – | Effect on human neutrophils’ viability (human neutrophils; 0.38 μM): no effect on the viability was observed; Inhibitory activity (% ± SEM), neutrophils’ oxidative burst ([1]; 0.38 µM (highest tested concentration)): did not show an inhibitory effect; inhibition at 0.38 µM ([1]; Homo sapiens, Neutrophil, 0.38 µM (highest tested concentration), read-out: Inhibitory activity (% ± SEM), neutrophils’ oxidative burst): < 30%
24 | O=c1cc(/C=C/c2cccc(Cl)c2)oc2cccc(O)c12 [G1] | 12.50 µM | – | –
25 | O=c1cc(/C=C/c2ccc(O)c(O)c2)oc2cc(O)ccc12 [B8] | 25.00 µM | 700 ± 100 nM | –
26 | O=c1cc(/C=C/c2cccc(O)c2)oc2cccc(O)c12 [A7] | 6.25 µM | – | –
27 | O=c1cc(/C=C/c2ccc([N+](=O)[O-])cc2)oc2cccc(O)c12 [F2] | 12.50 µM | – | –
28 | O=c1cc(/C=C/c2ccc(O)cc2)oc2cc(O)cc(O)c12 [B4] | 6.25 µM | 3100 ± 300 nM | –
29 | COc1cc(OC)c2c(=O)cc(/C=C/c3ccc(OCc4ccccc4)c(OCc4ccccc4)c3)oc2c1 [D2] | 12.50 µM | – | –
30 | O=c1cc(/C=C/c2ccc(O)cc2)oc2ccccc12 [B1] | 25.00 µM | 7500 ± 400 nM | Effect on total neutrophils’ population percentage (human neutrophils; 50.00 μM): affected the total neutrophils’ population percentage
31 | COc1ccc(/C=C/c2cc(=O)c3c(OC)cccc3o2)cc1OC [C3] | 50.00 µM | – | inhibition at 50 µM [1, 2]: 54 ± 4%
32 | COc1cc(O)c2c(=O)cc(/C=C/c3ccc(O)cc3)oc2c1 [B5] | 6.25 µM | – | –
33 | COc1ccc2c(=O)cc(/C=C/c3ccc(OC)c(OC)c3)oc2c1 [C4] | 37.50 µM | 24200 ± 300 nM | Times less active than C8 (oxidative burst) [1]: about 14 times
34 | COc1ccc2c(=O)c(Br)c(/C=C/c3ccc(OC)c(OC)c3)oc2c1 [H3] | 12.50 µM | – | –
35 | COc1ccc(/C=C/c2cc(=O)c3ccc(OCc4ccccc4)c(OCc4ccccc4)c3o2)cc1OC [C7] | 25.00 µM | – | inhibition at 25 µM [1, 2]: < 30%
36 | COc1ccc2c(=O)cc(/C=C/c3ccc(OCc4ccccc4)c(OCc4ccccc4)c3)oc2c1OC [D3] | 12.50 µM | – | –
